In paper PMC10178848, “Modulating fast skeletal muscle contraction protects skeletal muscle in animal models of Duchenne muscular dystrophy” (The Journal of Clinical Investigation, 2023):

Test system: mdx mouse EDL muscle
Assay: Phosphoprotein array analysis (Cell Signaling Phospho Antibody Array)
Conditions: T vs C
Protocol: mdx mouse EDL muscle was prepared for ex vivo analysis as described (n = 5). Muscles were incubated for 1 hour with DMSO or EDG-5506 (5 μM) and then flash frozen in liquid nitrogen. Tissue preparation and analysis were performed as recommended by the manufacturer (Cell Signaling Phospho Antibody Array, Full Moon Biosystems).

## O=c1ccc(-c2cnc(OCC(F)(F)F)nc2)nn1Cc1cncc(F)c1 [EDG-5506]
  Fold Change between Samples T/C: Tau (Phospho-Ser396): 0.90
  Fold Change between Samples T/C: VEGFR2 (Phospho-Tyr1175): 0.84
  Fold Change between Samples T/C: Zap-70 (Phospho-Tyr319): 1.04
  Fold Change between Samples T/C: c-Jun (Phospho-Ser73): 0.91
  Fold Change between Samples T/C: p44/42 MAP Kinase (Phospho-Tyr204): 0.88
  Fold Change between Samples T/C: p53 (Phospho-Ser15): 0.20
phospho/total
  Ratio (T/C): 4E-BP1 (Phospho-Thr45) to total 4E-BP1 (Ab-45): 0.8337
  Ratio (T/C): 14-3-3 theta/tau (Phospho-Ser232) to total 14-3-3 zeta/delta (Ab-232): 0.9814
  Ratio (T/C): ACC1 (Phospho-Ser80) to total ACC1 (Ab-80): 0.9544
  Ratio (T/C): AKT1 (Phospho-Ser473) to total AKT1 (Ab-308): 0.8575
  Ratio (T/C): AKT1S1 (Phospho-Thr246) to total AKT1S1 (Ab-246): 1.16
  Ratio (T/C): AMPKbeta1 (Phospho-Ser182) to total AMPKbeta1 (Ab-182): 0.902
  Ratio (T/C): ASK1 (Phospho-Ser966) to total ASK1 (Ab-966): 0.799
  Ratio (T/C): ATF2 (Phospho-Ser62/44) to total ATF2 (Ab-62/44): 0.3856
  Ratio (T/C): Abl1 (Phospho-Thr754/735) to total Abl1 (Ab-754/735): 1.124
  Ratio (T/C): Actin Pan(a/b/g) (Phospho-Tyr55/53) to total Actin Pan(a/b/g) (Ab-55/53): 0.9642
  Ratio (T/C): B-RAF (Phospho-Ser446) to total B-RAF (Ab-598): 0.9669
  Ratio (T/C): BAX (Phospho-Thr167) to total Bax: 0.8854
  Ratio (T/C): BCL-XL (Phospho-Ser62) to total BCL-XL (Ab-47): 0.5743
  Ratio (T/C): BID (Phospho-Ser78) to total BID (Ab-78): 0.7661
  Ratio (T/C): BLNK (Phospho-Tyr96) to total BLNK (Ab-96): 0.53
  Ratio (T/C): BRCA1 (Phospho-Ser1423) to total BRCA1 (Ab-1524): 0.7749
  Ratio (T/C): CDC25C (Phospho-Ser216) to total CDC25C (Ab-216): 0.4323
  Ratio (T/C): CDK1/CDC2 (Phospho-Tyr15) to total CDK1/CDC2 (Ab-15): 0.7557
  Ratio (T/C): CREB (Phospho-Ser133) to total CREB (Ab-133): 1.041
  Ratio (T/C): CaMK2-beta/gamma/delta (Phospho-Thr287) to total CaMK2-beta/gamma/delta (Ab-287): 0.6524
  Ratio (T/C): CaMK2A (Phospho-Thr286) to total CaMK2A (Ab-286): 0.848
  Ratio (T/C): Caspase 1 (Phospho-Ser376) to total Caspase 1 (Ab-376): 0.6605
  Ratio (T/C): Caspase 8 (Phospho-Ser347) to total Caspase 8 (Ab-347): 1.051
  Ratio (T/C): Caspase 9 (Phospho-Ser196) to total Caspase 9 (Ab-196): 0.4054
  Ratio (T/C): Catalase (Phospho-Tyr385) to total Catalase (Ab-385): 0.7422
  Ratio (T/C): Catenin beta (Phospho-Thr41/Ser45) to total Catenin beta (Ab-37): 0.6858
  Ratio (T/C): Chk1 (Phospho-Ser286) to total Chk1 (Ab-286): 0.7615
  Ratio (T/C): Chk2 (Phospho-Thr68) to total Chk2 (Ab-68): 0.4403
  Ratio (T/C): CrkII (Phospho-Tyr221) to total CrkII (Ab-221): 0.7162
  Ratio (T/C): Cyclin D1 (Phospho-Thr286) to total Cyclin D1 (Ab-286): 1.068
  Ratio (T/C): Cyclin E1 (Phospho-Thr77) to total Cyclin E1 (Ab-77): 0.8189
  Ratio (T/C): DARPP-32 (Phospho-Thr34) to total DARPP-32 (Ab-34): 0.8988
  Ratio (T/C): EEF2 (Phospho-Thr56) to total EEF2 (Ab-56): 1.324
  Ratio (T/C): EGFR (Phospho-Tyr869) to total EGFR (Ab-1172): 1.314
  Ratio (T/C): EGFR (Phospho-Tyr1172) to total EGFR (Ab-1172): 0.9484
  Ratio (T/C): Elk1 (Phospho-Ser383) to total Elk1 (Ab-389): 0.8083
  Ratio (T/C): FAK (Phospho-Ser910) to total FAK (Ab-910): 0.6171
  Ratio (T/C): FGFR1 (Phospho-Tyr654) to total FGFR1 (Ab-766): 1.2323
  Ratio (T/C): FKHRL1/FOXO3A (Phospho-Ser253) to total FKHRL1/FOXO3A (Ab-253): 0.5092
  Ratio (T/C): FOXO1/3/4-pan (Phospho-Thr24/32) to total FOXO1/3/4-pan (Ab-24/32): 0.8412
  Ratio (T/C): GRK2 (Phospho-Ser29) to total GRK2 (Ab-29): 0.6549
  Ratio (T/C): GSK3 beta (Phospho-Ser9) to total GSK3 beta: 0.6837
  Ratio (T/C): HDAC1 (Phospho-Ser421) to total HDAC1 (Ab-421): 1.576
  Ratio (T/C): HDAC2 (Phospho-Ser394) to total HDAC2 (Ab-394): 0.8716
  Ratio (T/C): HER2 (Phospho-Tyr1221/Tyr1222) to total HER2 (Ab-1221/1222): 0.7289
  Ratio (T/C): HER2 (Phospho-Tyr1248) to total HER2 (Ab-1221/1222): 0.9858
  Ratio (T/C): HSP27 (Phospho-Ser82) to total HSP27 (Ab-82): 1.177
  Ratio (T/C): HSP90B (Phospho-Ser226) to total HSP90B (Ab-254): 0.9521
  Ratio (T/C): IKK alpha/beta (Phospho-Ser180/181) to total IKK alpha/beta (Ab-180/181): 0.9407
  Ratio (T/C): IKK-beta (Phospho-Tyr188) to total IKK-beta (Ab-199): 0.6267
  Ratio (T/C): IKK-beta (Phospho-Tyr199) to total IKK-beta (Ab-199): 0.8262
  Ratio (T/C): IKK-gamma (Phospho-Ser31) to total IKK-gamma (Ab-31): 1.02
  Ratio (T/C): IL-4R/CD124 (Phospho-Tyr497) to total IL-4R/CD124 (Ab-497): 0.9976
  Ratio (T/C): IL-10R-alpha (Phospho-Tyr496) to total IL-10R-alpha (Ab-496): 0.6514
  Ratio (T/C): IRS-1 (Phospho-Ser312) to total IRS-1 (Ab-312): 0.9305
  Ratio (T/C): IkB-alpha (Phospho-Ser32/36) to total IkB-alpha (Ab-32/36): 1.258
  Ratio (T/C): IkB-epsilon (Phospho-Ser22) to total IkB-epsilon (Ab-22): 0.98
